Measurements: article PMC4832855 (Cancer Science, 2016)

Legend:
[1] = preliminary in vitro and in vivo studies; ref Kyowa Hakko Kirin Co., Tokyo, unpublished data; cited from earlier work
[2] = ref Kyowa Hakko Kirin Co., Ltd, Tokyo, unpublished data; cited from earlier work
EGFR = EGFR (Homo sapiens, UniProt P00533); test: Kinase inhibition profiling at 100 nmol/L; type: biochemical; conditions: read-out: Inhibition at 100 nmol/L
AurB = AurB (Homo sapiens, UniProt Q96GD4); test: Kinase inhibition profiling at 100 nmol/L; type: biochemical; conditions: read-out: Inhibition at 100 nmol/L
Sequence of AurB (Q96GD4 whole entry): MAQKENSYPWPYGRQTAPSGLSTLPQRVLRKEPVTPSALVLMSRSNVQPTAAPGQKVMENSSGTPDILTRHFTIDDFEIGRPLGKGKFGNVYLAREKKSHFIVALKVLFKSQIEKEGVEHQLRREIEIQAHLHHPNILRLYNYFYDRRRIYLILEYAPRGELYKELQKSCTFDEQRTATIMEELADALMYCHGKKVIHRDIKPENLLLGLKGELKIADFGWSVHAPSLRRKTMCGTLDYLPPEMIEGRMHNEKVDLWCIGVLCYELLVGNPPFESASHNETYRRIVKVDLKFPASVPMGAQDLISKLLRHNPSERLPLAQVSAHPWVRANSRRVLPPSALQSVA
Sequence of AurB (Q9NQS7 803-916 partner limits assumed): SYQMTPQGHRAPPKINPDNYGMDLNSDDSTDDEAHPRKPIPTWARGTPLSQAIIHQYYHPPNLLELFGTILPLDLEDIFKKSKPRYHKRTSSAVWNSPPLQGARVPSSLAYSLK

Sequence of EGFR (P00533 25-1210): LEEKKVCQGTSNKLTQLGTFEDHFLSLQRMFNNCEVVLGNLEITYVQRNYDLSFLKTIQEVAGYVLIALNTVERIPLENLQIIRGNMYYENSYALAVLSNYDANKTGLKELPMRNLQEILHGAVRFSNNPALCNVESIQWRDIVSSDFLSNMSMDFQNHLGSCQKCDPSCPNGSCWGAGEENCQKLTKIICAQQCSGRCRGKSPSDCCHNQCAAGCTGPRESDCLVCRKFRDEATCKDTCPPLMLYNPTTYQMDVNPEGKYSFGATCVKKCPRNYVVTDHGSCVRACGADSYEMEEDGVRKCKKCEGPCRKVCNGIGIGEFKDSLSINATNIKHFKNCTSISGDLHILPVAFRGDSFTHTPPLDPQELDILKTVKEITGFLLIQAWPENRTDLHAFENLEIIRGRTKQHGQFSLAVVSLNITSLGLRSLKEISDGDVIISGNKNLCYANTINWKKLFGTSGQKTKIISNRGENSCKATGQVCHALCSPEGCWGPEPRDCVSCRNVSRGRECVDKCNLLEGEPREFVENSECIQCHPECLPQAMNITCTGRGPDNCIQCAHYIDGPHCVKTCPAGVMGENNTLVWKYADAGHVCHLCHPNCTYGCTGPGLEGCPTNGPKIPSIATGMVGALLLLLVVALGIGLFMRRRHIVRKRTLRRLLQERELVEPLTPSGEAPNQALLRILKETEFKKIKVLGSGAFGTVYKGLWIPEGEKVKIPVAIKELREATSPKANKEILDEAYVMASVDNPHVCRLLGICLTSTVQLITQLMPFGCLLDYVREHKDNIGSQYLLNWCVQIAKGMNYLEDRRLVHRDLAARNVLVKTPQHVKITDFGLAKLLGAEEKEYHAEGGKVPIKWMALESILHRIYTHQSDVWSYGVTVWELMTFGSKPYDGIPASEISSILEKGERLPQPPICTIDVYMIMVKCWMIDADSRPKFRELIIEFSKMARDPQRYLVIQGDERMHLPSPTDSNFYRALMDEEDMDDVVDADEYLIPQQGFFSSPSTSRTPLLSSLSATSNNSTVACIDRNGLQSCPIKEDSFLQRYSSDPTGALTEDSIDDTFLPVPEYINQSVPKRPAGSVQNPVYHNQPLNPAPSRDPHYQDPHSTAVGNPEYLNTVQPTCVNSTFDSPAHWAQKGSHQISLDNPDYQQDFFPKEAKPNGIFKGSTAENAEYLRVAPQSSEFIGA

For Cc1ccsc1C(=O)Nc1cc(CN2CCN(C(=O)CO)CC2)ccc1/C=C/c1n[nH]c2ccccc12 [KW‐2450], the “Antitumor effect in combination with lapatinib and letrozole” value [1] is given as “synergistic antitumor effects”, the Protein bound [2] is given as 98.5–99.0% and the inhibition at 0.1 µM (EGFR) is given as 2.5%. It also gave an inhibition at 0.1 µM (AurB) of 76.8%.
